This is an account of results in ChEMBL document CHEMBL5131495, “Discovery of unique thiazolidinone-conjugated coumarins as novel broad spectrum antibacterial agents” (Eur J Med Chem, 2022).

Converted amounts (≈) assume the structure as drawn.

Common to all, as to type: functional
Test [1] relates to Staphylococcus aureus. Description: Antibacterial activity against Staphylococcus aureus assessed as inhibition of bacterial growth.
Test [2] concerns Staphylococcus aureus. Description: Antibacterial activity against methicillin resistant Staphylococcus aureus N315 assessed as inhibition of bacterial growth.
The subject of test [3] is Enterococcus faecalis. Put plainly: Antibacterial activity against Enterococcus faecalis assessed as inhibition of bacterial growth.
Test [4] has as its system Staphylococcus aureus. Description: Antibacterial activity against Staphylococcus aureus ATCC 25923 assessed as inhibition of bacterial growth.
Test [5] deals with Staphylococcus aureus. Put plainly: Antibacterial activity against Staphylococcus aureus ATCC 29213 assessed as inhibition of bacterial growth.
Test [6] has as its system Klebsiella pneumoniae. Put plainly: Antibacterial activity against Klebsiella pneumoniae assessed as inhibition of bacterial growth.
Test [7] concerns Escherichia coli. Description: Antibacterial activity against Escherichia coli assessed as inhibition of bacterial growth.
The subject of test [8] is Escherichia coli. Description: Antibacterial activity against Escherichia coli ATCC 25922 assessed as inhibition of bacterial growth.
Test [9] concerns Pseudomonas aeruginosa. Put plainly: Antibacterial activity against Pseudomonas aeruginosa assessed as inhibition of bacterial growth.
For test [10], the system named is Pseudomonas aeruginosa. Put plainly: Antibacterial activity against Pseudomonas aeruginosa ATCC 27853 assessed as inhibition of bacterial growth.
The subject of test [11] is Acinetobacter baumannii. Put plainly: Antibacterial activity against Acinetobacter baumannii assessed as inhibition of bacterial growth.

By MIC is commonly meant the least concentration at which growth counts as inhibited. `Cc1cc(=O)oc2cc(/N=C3/S/C(=C\c4cccs4)C(=O)N3CCO)ccc12`: the MIC in test [1] is 4 µg/mL (≈ 9.7 µM); in [2], 128 µg/mL (≈ 310 µM); in test [3], 4 µg/mL (≈ 9.7 µM); in [4], 32 µg/mL (≈ 77.6 µM); in test [5], 1 µg/mL (≈ 2.42 µM); in [6], 64 µg/mL (≈ 155 µM). Further, the MIC turned out to be 32 µg/mL (≈ 77.6 µM) in test [7]; 32 µg/mL (≈ 77.6 µM) in [8]; 16 µg/mL (≈ 38.8 µM) in test [9]; 1 µg/mL (≈ 2.42 µM) in test [10]; 1 µg/mL (≈ 2.42 µM) in test [11].
Consider `CCn1cc(/C=C2\S/C(=N/c3ccc4c(C)cc(=O)oc4c3)N(CCO)C2=O)c2ccccc21`, for which the MIC in test [1] is 128 µg/mL (≈ 270 µM); in test [2], 128 µg/mL (≈ 270 µM); in test [3] it was 128 µg/mL (≈ 270 µM); in [4], 64 µg/mL (≈ 135 µM); in test [5] it was 128 µg/mL (≈ 270 µM); in test [6] it was 64 µg/mL (≈ 135 µM). Further, the MIC was determined as 64 µg/mL (≈ 135 µM) in [7]; 128 µg/mL (≈ 270 µM) in test [8]; 64 µg/mL (≈ 135 µM) in test [9]; 32 µg/mL (≈ 67.6 µM) in [10]; 64 µg/mL (≈ 135 µM) in test [11].
Turning to `Cc1cc(=O)oc2cc(/N=C3/S/C(=C\c4ccc(O)c(Br)c4)C(=O)N3CCO)ccc12`, the MIC in test [1] amounted to 16 µg/mL (≈ 31.9 µM); in [2], 128 µg/mL (≈ 255 µM); in test [3], 64 µg/mL (≈ 128 µM); in [4] it was 64 µg/mL (≈ 128 µM); in [5], 128 µg/mL (≈ 255 µM); in [6], 64 µg/mL (≈ 128 µM). The MIC stood at 256 µg/mL (≈ 511 µM) in test [7]; 32 µg/mL (≈ 63.8 µM) in test [8]; 32 µg/mL (≈ 63.8 µM) in [9]; 32 µg/mL (≈ 63.8 µM) in test [10]; 64 µg/mL (≈ 128 µM) in test [11].
As for `CCn1cc(C(=O)O)c(=O)c2cc(F)c(N3CCNCC3)cc21` [NORFLOXACIN], the MIC turned out to be 2 µg/mL (≈ 6.26 µM) in test [1]; 4 µg/mL (≈ 12.5 µM) in test [2]; 4 µg/mL (≈ 12.5 µM) in test [3]; 4 µg/mL (≈ 12.5 µM) in test [4]; 2 µg/mL (≈ 6.26 µM) in [5]; 4 µg/mL (≈ 12.5 µM) in [6]. For the same compound, the MIC in [7] was 2 µg/mL (≈ 6.26 µM); in test [8], 4 µg/mL (≈ 12.5 µM); in [9] it was 1 µg/mL (≈ 3.13 µM); in test [10], 4 µg/mL (≈ 12.5 µM); in [11] it was 4 µg/mL (≈ 12.5 µM).
Consider `Cc1cc(=O)oc2cc(/N=C3/S/C(=C\c4ccc(O)c(Cl)c4)C(=O)N3CCO)ccc12`, for which the MIC in [1] was determined as 32 µg/mL (≈ 70 µM); in test [2], 64 µg/mL (≈ 140 µM); in test [3], 8 µg/mL (≈ 17.5 µM); in test [4] it was 128 µg/mL (≈ 280 µM); in test [5], 256 µg/mL (≈ 560 µM); in [6], 32 µg/mL (≈ 70 µM). The MIC in test [7] turned out to be 16 µg/mL (≈ 35 µM); in [8], 32 µg/mL (≈ 70 µM); in test [9], 32 µg/mL (≈ 70 µM); in [10], 4 µg/mL (≈ 8.75 µM); in test [11], 16 µg/mL (≈ 35 µM).
For `Cc1ccc(/C=C2\S/C(=N/c3ccc4c(C)cc(=O)oc4c3)N(CCO)C2=O)o1`, the MIC turned out to be 128 µg/mL (≈ 312 µM) in test [1]; 8 µg/mL (≈ 19.5 µM) in [2]; 64 µg/mL (≈ 156 µM) in [3]; 256 µg/mL (≈ 624 µM) in test [4]; 128 µg/mL (≈ 312 µM) in [5]; 32 µg/mL (≈ 78 µM) in test [6]. Also, the MIC in test [7] was 16 µg/mL (≈ 39 µM); in test [8], 64 µg/mL (≈ 156 µM); in test [9], 16 µg/mL (≈ 39 µM); in test [10] it was 16 µg/mL (≈ 39 µM); in test [11], 8 µg/mL (≈ 19.5 µM).
Consider `Cc1cc(=O)oc2cc(/N=C3/S/C(=C\c4nccs4)C(=O)N3CCO)ccc12`, for which the minimal inhibitory concentration (MIC) came out at 16 µg/mL (≈ 38.7 µM) in [1]; 64 µg/mL (≈ 155 µM) in test [2]; 4 µg/mL (≈ 9.67 µM) in [3]; 1 µg/mL (≈ 2.42 µM) in [4]; 64 µg/mL (≈ 155 µM) in [5]; 2 µg/mL (≈ 4.84 µM) in test [6]. For the same compound, the MIC in [7] was 128 µg/mL (≈ 310 µM); in [8] it was 256 µg/mL (≈ 619 µM); in test [9] it was 128 µg/mL (≈ 310 µM); in [10], 128 µg/mL (≈ 310 µM); in [11], 1 µg/mL (≈ 2.42 µM).
In the case of `Cc1cc(=O)oc2cc(/N=C3/S/C(=C\c4ccc(F)cc4)C(=O)N3CCO)ccc12`, the MIC in test [1] was 64 µg/mL (≈ 151 µM); in test [2], 64 µg/mL (≈ 151 µM); in test [3], 32 µg/mL (≈ 75.4 µM); in test [4], 128 µg/mL (≈ 302 µM); in [5], 16 µg/mL (≈ 37.7 µM); in test [6], 256 µg/mL (≈ 603 µM). The MIC was found to be 128 µg/mL (≈ 302 µM) in test [7]; 128 µg/mL (≈ 302 µM) in [8]; 32 µg/mL (≈ 75.4 µM) in test [9]; 64 µg/mL (≈ 151 µM) in test [10]; 4 µg/mL (≈ 9.42 µM) in test [11].
Consider `Cc1cc(=O)oc2cc(/N=C3/S/C(=C\c4ccc(Cl)cc4)C(=O)N3CCO)ccc12`, for which the MIC in test [1] was 128 µg/mL (≈ 290 µM); in test [2], 16 µg/mL (≈ 36.3 µM); in [3], 128 µg/mL (≈ 290 µM); in [4], 8 µg/mL (≈ 18.1 µM); in test [5] it was 4 µg/mL (≈ 9.07 µM); in test [6] it was 128 µg/mL (≈ 290 µM). Moreover, the MIC in [7] came out at 64 µg/mL (≈ 145 µM); in test [8], 2 µg/mL (≈ 4.54 µM); in test [9], 2 µg/mL (≈ 4.54 µM); in [10], 8 µg/mL (≈ 18.1 µM); in [11], 32 µg/mL (≈ 72.6 µM).
